Peptide text beside a SMILES is read from it. * marks the point of attachment. Biotin = O=C1N[C@H]2[C@H](CS[C@H]2CCCCC(=O)*)N1
Tests used:
HK-2 cells [1] = experiment: In vitro scratch assay (scratch area); type: cell-based, human; conditions: 10 nM
Experimental: (§1) Certain exemplary peptide-conjugated biotin molecules can accelerate wound healing in cell cultures. The in vitro scratch assay is an easy and well-developed method to measure cell proliferation and migration over a “wound area” in vitro. This assay involves creating a “scratch” in a cell monolayer with a pipette tip and then examining the rate at which cells proliferate and migrate to close the scratch.
3×10^5 cells were plated per well in 6-well plates in DMEM at 37° C. in a humidified incubator with 5% CO2 for one day prior to the experiment. To mimic the microenvironment of wounds in vitro, serum-free medium was used in the scratch assay. On the day of the scratch assay, the medium was replaced with serum-free DMEM, and a line scraped across the cell monolayer using a p1000 pipette tip. Cells were washed to remove cell debris and replaced with DMEM alone (control), or DMEM containing 10 nM biotin or peptide-conjugated biotin molecules.
(§2) The scratch area was examined immediately (day 0) using a Nikon Eclipse Ti2 fluorescence microscope. Six different field were captured for each sample using 4×objective. The scratch area (cell-free zone) was calculated using ImageJ software, an open-source Java image processing program inspired by NIH Image (National Institute of Health). The scratch area was re-examined after 24 hours (day 1), and the area was normalized to the area determined on day 0 for the same sample. All results were calculated as change from no-treatment control and averaged for the six fields.

ARPE-19 cells [2] = experiment: Cell number and viability after 30 days of serum deprivation; type: cell-based, human; conditions: 10 nM
Experimental: (§3) Cell viability was measured using the Alamar Blue Cell Proliferation Assay (Bio-Rad), according to manufacturer's protocol. Alamar Blue uses resazurin to measure reducing power of living cells. The weakly fluorescent resazurin is reduced to the highly fluorescent resorufin when reduced by cellular metabolism. Briefly, alamar blue reagent (10 ul) was added to the culture medium and incubated for 1 h at 37° C. Fluorescence from resorufin (Ex/Em 530/590 nm) was detected using a microplate reader (SpectraMax iD3, Molecular Devices).
In the second model, ARPE-19 cells were grown in serum-free DMEM in the absence or presence of peptide-conjugated biotin molecules for 30 days. Serum-free media was supplemented with 10 nM of SPN12, SPN15 or SPN16 compounds (all at 10 nM) was replaced every 3 days. Culture medium was replaced every 3 days.

ARPE-19 cells [3] = experiment: In vitro scratch assay (scratch area); type: cell-based, human
Text: as §1, §2

[4] = system: ARPE-19 human retinal pigment epithelial cells; experiment: Mitochondrial localization: co-localization with cytochrome c oxidase subunit 4 (COX4); type: cell-based; conditions: ARPE-19 cells, 1 uM, 2 hours, serum-free DMEM/F12
Experimental: Cells were fixed with 4% PFA at RT for 10 min and then permeabilized with 0.1% Triton X-100 at RT for 10 min. Cells were blocked with 2% BSA (bovine serum albumin) at RT for 30 min, and then incubated with primary antibody for cytochrome c oxidase subunit 4 (COX4), a major protein complex expressed on the inner mitochondrial membrane. The rabbit polyclonal COX4 antibody (Invitrogen PAS-29992, Waltham, MA) was used at 1:500 dilution in 2% BSA at 4° C. overnight.

HK-2 cells [5] = experiment: Cellular ATP in extreme starvation model (serum-free 5% DMEM in PBS, 3 days); type: cell-based, human; conditions: 10 nM
Experimental: ATP was measured using the ApoSENSOR ATP Bioluminescence Assay Kit (BioVision) according to manufacturer's protocol. This kit utilizes luciferase to catalyze the formation of light from ATP and luciferin. Briefly, cells were treated with 100 ul of Nuclear Releasing Buffer for 5 min at RT with gentle shaking. 10 ul of ATP Monitoring Enzyme was added to cell lysate, and luminescence was measured using a microplate reader (SpectraMax iD3, Molecular Device). ATP levels were normalized to the serum-free DMEM control group (arbitrarily set to 1.0).
The second model uses an extreme starvation model whereby HK-2 cells were cultured in 96-well plates in serum-free 5% DMEM in PBS (phosphate-buffered saline) for 3 days. Cells were treated with 10 nM free biotin or peptide-conjugated biotin molecules. All treatments were carried out with N=6 in each experiment.

HK-2 cells [6] = experiment: Mitochondrial potential (TMRM) of cells at the scratch edge; type: cell-based, human; conditions: 10 nM, serum-free, 24 hours after scratch
Text: Rapidly dividing cells can need ATP to support the synthesis of important building blocks. Tissue injury can cause rapid mitochondrial depolarization that compromises ATP production and/or results in cell death. The loss of ATP can further impair cell proliferation and/or tissue repair. Mitochondrial potential can be monitored in the cells at the edge of the scratch area using the cell-permeable potential-dependent dye TMRM (tetramethylrhodamine methyl ester). TMRM can accumulate in negatively charged polarized mitochondria and can be detected as red fluorescence. To mimic the microenvironment of wounds in vitro, serum-free medium was used in the scratch assay. […] HK-2 cells were then incubated with 5 nM TMRM in DMEM without phenol red and incubated for 30 min. Cells were then covered with live cell image buffer and imaged using Nikon Eclipse Ti2 fluorescent microscope (20× objective).

[7] = system: Human retinal pigment epithelial cells (ARPE-19); experiment: Mitochondrial potential (TMRM/MitoView Green) after serum starvation; type: cell-based; conditions: ARPE-19 cells, 3 days of serum starvation, then 1 uM for 2 hours
Experimental: ARPE-19 cells were seeded in 35 mm glass plates at an initial density of 5×10^4 cells. […] Cells were then incubated in serum-free DMEM/F12 alone (control group) or DMEM/F12 containing 1 uM of SPN12 or SPN15 for 2 hours.
To determine mitochondrial potential, live cells were incubated with 5 nM tetramethylrhodamine methyl ester (TMRM, #70017, Biotium, Fremont, CA) in DMEM without phenol red. TMRM is a potential-dependent fluorescent dye (Ex/Em=548/573). TMRM accumulates in negatively charged polarized mitochondria and can be detected as red fluorescence. Total mitochondria were imaged with a mitochondrial potential-independent fluorescent dye (100 nM MitoView Green; Ex/Em=490/523; #70054, Biotium, Fremont CA). Hoechst 33342 (10 ug/ml, Novus Biologicals, Centennial, CO) was added to stain nuclei. Live cells were covered with phosphate buffer and imaged using the Nikon Eclipse Ti fluorescent microscopy using the 60×water objective.

[8] = system: ARPE-19 human retinal pigment epithelial cell monolayers; experiment: Cell proliferation at scratch edge (PCNA staining); type: cell-based; conditions: ARPE-19 cells, 10 nM, serum-free, 24 hours after scratch
Text: (§4) Re-epithelialization of a wound area require proliferation of cells at the wound edge, which can be impaired in most wounds due to lack of blood flow to deliver nutrients and/or growth factor(s) that can be necessary for cell proliferation. Cell proliferation in the wound edge can be monitored by proliferating cell nuclear antigen (PCNA) staining. To mimic the microenvironment of wounds in vitro, serum-free medium was used for the scratch assay in cell cultures.
(§5) Proliferating cells were identified by immunostaining with antibody to proliferating cell nuclear antigen (PCNA) according to standard procedures as presented in IHC World. PCNA staining was performed using the same plate of cells after determination of scratch area. […] All cell nuclei stain blue with Hoechst, but nuclei of proliferating cells stain red. The number of proliferating cells per field was quantified by the intensity of red nuclear stain and normalized to intensity of blue nuclear stain (determined by Nikon NIS-Elements Imaging Software).

[9] = system: HK-2 human renal epithelial cell monolayers; experiment: Cell proliferation at scratch edge (PCNA staining); type: cell-based; conditions: HK-2 cells, 10 nM, serum-free, 24 hours after scratch
Text: as §4, §5

HK-2 cells [10] = experiment: Cell viability (Alamar Blue) after 11 days of serum starvation; type: cell-based, human; conditions: 10 nM, vs serum-free control
Experimental: In the first model, HK-2 cells were cultured in 96-well plates in serum-free DMEM alone or in serum-free DMEM containing 10 nM of SPN11 or SPN12 for 11 days. Culture medium was replaced every 3 days.
as §3

N=C(N)NCCC[C@H](NC(=O)[C@H](Cc1c[nH]c2ccccc12)NC(=O)CCCC[C@@H]1SC[C@@H]2NC(=O)N[C@@H]21)C(=O)N[C@@H](Cc1c[nH]c2ccccc12)C(=O)N[C@@H](CCCCNC(=O)CCCC[C@@H]1SC[C@@H]2NC(=O)N[C@@H]21)C(N)=O [SPN12, D-Biotin-L-Trp-L-Arg-L-Trp-L-Lys(biotinyl)-NH2] (Biotin-WRWK(Biotin)-NH2)
scratch area after 24 hours, microscopic images FIG. 15 (HK-2 cells [1]; serum-free DMEM, 24 hours after mechanical scratch): almost completely closed
closure of the scratch area compared to control, FIG. 16 and FIG. 17 (HK-2 cells [1]; serum-free, 24 hours): significantly accelerated the closure of the scratch area
effectiveness in reducing scratch area compared to free biotin, FIG. 16 and FIG. 17 (HK-2 cells [1]; serum-free, 24 hours): twice as effective
cell viability after serum deprivation compared to control, FIG. 9 (ARPE-19 cells [2]; 30 days of serum deprivation): doubled
cell number after prolonged serum deprivation, microscopic images FIG. 8 (ARPE-19 cells [2]; 30 days serum-free): increased cell number
wound healing (scratch closure), FIG. 18 (ARPE-19 cells [3]): accelerated wound healing
co-localization of biotin staining with COX4 staining (inner mitochondrial membrane), FIG. 6 [4]: co-localization
ATP content compared to free biotin under extreme starvation, FIG. 12 (HK-2 cells [5]): doubling
number of cells with good mitochondrial potential (TMRM) at scratch edge, images FIG. 24 (HK-2 cells [6]): increased the number of cells with good mitochondrial potential
mitochondrial potential (red fluorescence) normalized to nuclear number, FIG. 25 (HK-2 cells [6]; compared to control): significantly increased mitochondrial potential
mitochondrial potential (TMRM) and filamentous mitochondrial network, FIG. 14 [7]: restore mitochondrial potential in all cells
number of proliferating (PCNA-positive) cells at the edge of the scratch, images FIG. 22 [8]: increased the number of proliferating cells
number of proliferating cells normalized to all nuclei, FIG. 21 ([9]; compared to control or biotin): doubled
number of proliferating (PCNA-positive) cells at the edge of the scratch, images FIG. 20 ([9]; compared to free biotin): increased the number of proliferating cells
improvement of cell viability in the absence of serum, FIG. 7 (HK-2 cells [10]): 35%
